The values that follow come from patent publication US11072598B2, “Somatostatin modulators and uses thereof” (CRINETICS PHARMACEUTICALS, INC., priority 2017, dated 2021).

In this assay the target is T1, human somatostatin receptor subtype 2 (Homo sapiens, UniProt P30874).
T1 construct: expressed in transfected cells
Briefly: cAMP functional assay for SSTR2 agonists. It is filed as cell-based. Conditions: inhibition of cAMP activities via human SST2 receptor (SSTR2), CHO-K1 cells; read-out: EC50. The text has this:
General overview: All five SSTR subtypes are Gi coupled G-protein coupled receptors (GPCRs) that lead to decreases in intracellular cyclic AMP (cAMP) when activated by an agonist. Therefore, measurement of intracellular cAMP levels can be used to assess whether compounds of the invention are agonists of SSTR subtypes (John Kelly, Troy Stevens, W. Joseph Thompson, and Roland Seifert, Current Protocols in Pharmacology, 2005, 2.2.1-2.2). One example of an intracellular cAMP assay is described below. cAMP assay protocol:
Four days prior to the assay, 5,000 Chinese hamster ovary cells (CHO-K1, ATCC #CCL-61) stably expressing the human somatostatin receptor subtype 2 are plated in each well of a 96-well tissue culture-treated plate in Ham's F12 growth media (ThermoFisher #10-080-CM) supplemented with 10% donor bovine serum (Gemini Bio-Products #100-506), 100 U/mL penicillin; 100 ug/mL streptomycin; 2 mM L-glutamine (Gemini Bio-Products #400-110) and 0.2 mg/mL hygromycin B (GoldBio #31282-04-9). The cells are cultured at 37° C., 5% CO2 and 95% humidity. On the day of the assay, the media is aspirated and the cells are treated with 50 μL of 1.6 μM NKH477 (Sigma #N3290) plus various dilutions of compounds of the invention in assay buffer [1× Hank's Balanced Salt Solution (ThermoFisher #SH3058802), 0.5 mM HEPES pH 7.4, 0.1% bovine serum albumin, 0.2 mM 3-Isobutyl-1-methylxanthine (IBMX, VWR #200002-790)]. The cells are incubated for 20 minutes at 37° C. […] The cells are treated with 50 μL of lysis buffer (HRTF cAMP kit, Cisbio). The lysate is transferred to 384-well plates and cAMP detection and visualization antibodies are added and incubated for 1-24 hours at room temperature. The time-resolved fluorescent signal is read with a Tecan M1000Pro multiplate reader. The intracellular cAMP concentrations are calculated by regression to a standard curve and are plotted vs. the concentration of the compounds of the invention and the EC50 of the compounds are calculated using standard methods. All data manipluations are in GraphPad Prism v6.

Each structure is given as a SMILES string. pEC50: −log10 of the molar value.

T1 sequence (P30874 whole entry): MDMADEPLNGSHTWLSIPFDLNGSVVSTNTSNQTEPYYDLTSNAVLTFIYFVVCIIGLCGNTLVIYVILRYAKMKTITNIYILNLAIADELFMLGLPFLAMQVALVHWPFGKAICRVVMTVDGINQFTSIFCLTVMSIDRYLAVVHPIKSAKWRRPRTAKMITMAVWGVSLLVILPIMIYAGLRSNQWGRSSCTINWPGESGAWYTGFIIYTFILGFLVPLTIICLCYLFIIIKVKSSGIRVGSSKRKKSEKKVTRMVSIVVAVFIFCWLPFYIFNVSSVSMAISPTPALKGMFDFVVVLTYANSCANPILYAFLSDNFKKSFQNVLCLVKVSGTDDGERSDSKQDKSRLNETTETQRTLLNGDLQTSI

Turning to `COc1cc(F)c2[nH]c(-c3c(N)ncc(-c4cc(C)cc(C)c4)c3N3CCC(N)CC3)nc2c1` [Compound 1-84], the pEC50 (as a rule, the negative decadic logarithm of the EC50, by convention in mol/L) was over 8.00.

Consider `N#Cc1cc(F)c2[nH]c(-c3c(N)ncc(-c4cc(F)cc(Cl)c4)c3N3CCC(N)CC3)nc2c1` [Compound 1-85, 2-[2-amino-4-(4-aminopiperidin-1-yl)-5-(3-chloro-5-fluorophenyl)pyridin-3-yl]-7-fluoro-1H-1,3-benzodiazole-5-carbonitrile], for which the pEC50 is over 8.00.

In the case of `Nc1ncc(-c2cc(F)cc(F)c2)c(N2CCC(N)CC2)c1-c1nc2cc(OC(F)(F)F)ccc2[nH]1` [Compound 1-86, 4-(4-aminopiperidin-1-yl)-5-(3,5-difluorophenyl)-3-[5-(trifluoromethoxy)-1H-1,3-benzodiazol-2-yl]pyridin-2-amine], the pEC50 was over 8.00.

Turning to `N#CCOc1cc(F)cc2nc(-c3c(N)ncc(-c4cc(F)cc(Cl)c4)c3N3CCC(N)CC3)[nH]c12` [Compound 1-87, 2-({2-[2-amino-4-(4-aminopiperidin-1-yl)-5-(3-chloro-5-fluorophenyl)pyridin-3-yl]-5-fluoro-1H-1,3-benzodiazol-7-yl}oxy)acetonitrile], the pEC50 was over 8.00.

As to `N#CCOc1cc(F)c2[nH]c(-c3c(N)ncc(-c4cc(F)cc(Cl)c4)c3N3CCC(N)CC3)nc2c1` [Compound 1-88, 2-({2-[2-amino-4-(4-aminopiperidin-1-yl)-5-(3-chloro-5-fluorophenyl)pyridin-3-yl]-7-fluoro-1H-1,3-benzodiazol-5-yl}oxy)acetonitrile], the negative-log EC50 (pEC50) was over 8.00.

For the compound `CNc1ncc(-c2cc(C)cc(F)c2)c(N2CCC(N)CC2)c1-c1nc2cc(C#N)cc(F)c2[nH]1` [Compound 1-89, 2-[4-(4-aminopiperidin-1-yl)-5-(3-fluoro-5-methylphenyl)-2-(methylamino)pyridin-3-yl]-7-fluoro-1H-1,3-benzodiazole-5-carbonitrile], the pEC50 was over 8.00.

As for `COc1cc(F)cc2nc(-c3c(N)ncc(-c4cc(F)cc(Cl)c4)c3N3CCC(N)CC3)[nH]c12` [Compound 1-90, 4-(4-aminopiperidin-1-yl)-5-(3-chloro-5-fluorophenyl)-3-(5-fluoro-7-methoxy-1H-1,3-benzodiazol-2-yl)pyridin-2-amine], the pEC50 was over 8.00.

Turning to `COc1cc(F)cc2nc(-c3c(N)ncc(-c4ccc(F)c(C)c4)c3N3CCC(N)CC3)[nH]c12` [Compound 1-91, 4-(4-aminopiperidin-1-yl)-5-(4-fluoro-3-methylphenyl)-3-(5-fluoro-7-methoxy-1H-1,3-benzodiazol-2-yl)pyridin-2-amine], the pEC50 was over 8.00.

Consider `COc1cc(F)cc2nc(-c3c(N)ncc(-c4cccc(Cl)c4)c3N3CCC(N)CC3)[nH]c12` [Compound 1-92, 4-(4-aminopiperidin-1-yl)-5-(3-chlorophenyl)-3-(5-fluoro-7-methoxy-1H-1,3-benzodiazol-2-yl)pyridin-2-amine], for which the pEC50 was over 8.00.

As to `COc1cc(F)cc2nc(-c3c(N)ncc(-c4cccc(C)c4)c3N3CCC(N)CC3)[nH]c12` [Compound 1-93, 4-(4-aminopiperidin-1-yl)-3-(5-fluoro-7-methoxy-1H-1,3-benzodiazol-2-yl)-5-(3-methylphenyl)pyridin-2-amine], the pEC50 was over 8.00.

For the compound `COc1cc(Cl)cc2nc(-c3c(N)ncc(-c4cc(C)cc(F)c4)c3N3CCC(N)CC3)[nH]c12` [Compound 1-94, 4-(4-aminopiperidin-1-yl)-3-(5-chloro-7-methoxy-1H-1,3-benzodiazol-2-yl)-5-(3-fluoro-5-methylphenyl)pyridin-2-amine], the pEC50 is over 8.00.

With `Cc1cc(F)cc(-c2cnc(O)c(-c3nc4cc(Cl)ccc4[nH]3)c2N2CCC(N)CC2)c1` [Compound 2-4, 4-(4-aminopiperidin-1-yl)-3-(5-chloro-1H-1,3-benzodiazol-2-yl)-5-(3-fluoro-5-methylphenyl)pyridin-2-ol], the pEC50 is over 8.00.

For the compound `COc1ncc(-c2cc(C)cc(C#N)c2)c(N2CCC(N)CC2)c1-c1nc2cc(Cl)ccc2[nH]1` [Compound 2-6, 3-[4-(4-aminopiperidin-1-yl)-5-(5-chloro-1H-1,3-benzodiazol-2-yl)-6-methoxypyridin-3-yl]-5-methylbenzonitrile], the pEC50 is 7.00 to 8.00.

As to `Cc1cc(F)cc(-c2cnc(O)c(-c3nc4cc(F)c(F)cc4[nH]3)c2N2CCC(N)CC2)c1` [Compound 2-7, 4-(4-aminopiperidin-1-yl)-3-(5,6-difluoro-1H-1,3-benzodiazol-2-yl)-5-(3-fluoro-5-methylphenyl)pyridin-2-ol], the pEC50 was 7.00 to 8.00.

`COc1ncc(-c2cc(C)cc(F)c2)c(N2CCC(N)CC2)c1-c1nc2cc(C#N)ccc2[nH]1` [Compound 2-8, 2-[4-(4-aminopiperidin-1-yl)-5-(3-fluoro-5-methylphenyl)-2-methoxypyridin-3-yl]-1H-1,3-benzodiazole-5-carbonitrile]: the pEC50 is over 8.00.

Consider `COc1ncc(-c2cc(C)cc(F)c2)c(N2CCC(N)CC2)c1-c1nc2cc(Cl)ncc2[nH]1` [Compound 2-9], for which the negative logarithm of the EC50 (pEC50) is over 8.00.

Consider `Cc1cc(F)cc(-c2cnc(O)c(-c3nc4cc(F)ccc4[nH]3)c2N2CCC(N)CC2)c1` [Compound 2-10, 4-(4-aminopiperidin-1-yl)-3-(5-fluoro-1H-1,3-benzodiazol-2-yl)-5-(3-fluoro-5-methylphenyl)pyridin-2-ol], for which the negative-log EC50 (pEC50) is 7.00 to 8.00.

`Cc1cc(F)cc(-c2cnc(Cl)c(-c3nc4cc(F)ccc4[nH]3)c2N2CCC(N)CC2)c1` [Compound 2-11, 1-[2-chloro-3-(5-fluoro-1H-1,3-benzodiazol-2-yl)-5-(3-fluoro-5-methylphenyl)pyridin-4-yl]piperidin-4-amine]: the pEC50 was over 8.00.

On to `COc1ncc(-c2cc(C)cc(Cl)c2)c(N2CCC(N)CC2)c1/C=N/OC(C)(C)C` [Compound 2-12, 1-{3-[(1E)-[(tert-butoxy)imino]methyl]-5-(3-chloro-5-methylphenyl)-2-methoxypyridin-4-yl}piperidin-4-amine], for which the negative-log EC50 (pEC50) was under 7.00.

On to `COc1ncc(-c2cc(C)cc(F)c2)c(N2CCC(N)CC2)c1-c1nc2nc(Cl)ccc2[nH]1` [Compound 2-13, 1-(3-{5-chloro-1H-imidazo[4,5-b]pyridin-2-yl}-5-(3-fluoro-5-methylphenyl)-2-methoxypyridin-4-yl)piperidin-4-amine], for which the negative logarithm of the EC50 (pEC50) was over 8.00.

`COc1ncc(-c2cc(F)cc(F)c2)c(N2CCC(N)CC2)c1-c1nc2cc(Cl)ccc2[nH]1` [Compound 2-14, 1-[3-(5-chloro-1H-1,3-benzodiazol-2-yl)-5-(3,5-difluorophenyl)-2-methoxypyridin-4-yl]piperidin-4-amine]: the negative-log EC50 (pEC50) was 7.00 to 8.00.

With `Cc1cc(F)cc(-c2cnnc(-c3cc4cc(Cl)ccc4[nH]3)c2N2CCC(N)CC2)c1` [Compound 3-1, 1-[3-(5-chloro-1H-indol-2-yl)-5-(3-fluoro-5-methylphenyl)pyridazin-4-yl]piperidin-4-amine], the pEC50 is over 8.00.

In the case of `Cc1cc(F)cc(-c2cnnc(-c3cc4ccc(Cl)cc4[nH]3)c2N2CCC(N)CC2)c1` [Compound 3-2, 1-[3-(6-chloro-1H-indol-2-yl)-5-(3-fluoro-5-methylphenyl)pyridazin-4-yl]piperidin-4-amine], the negative-log EC50 (pEC50) is over 8.00.

For `Cc1cc(F)cc(-c2cnnc(-c3nc4cc(Cl)ccc4[nH]3)c2N2CCC(N)CC2)c1` [Compound 3-3, 1-[3-(5-chloro-1H-1,3-benzodiazol-2-yl)-5-(3-fluoro-5-methylphenyl)pyridazin-4-yl]piperidin-4-amine], the negative-log EC50 (pEC50) was over 8.00.

As to `Cc1cc(F)cc(-c2cnnc(-c3cc4ccc(F)cc4[nH]3)c2N2CCC(N)CC2)c1` [Compound 3-4, 1-[3-(6-fluoro-1H-indol-2-yl)-5-(3-fluoro-5-methylphenyl)pyridazin-4-yl]piperidin-4-amine], the pEC50 is over 8.00.

In the case of `COc1ccc2cc(-c3nncc(-c4cc(C)cc(F)c4)c3N3CCC(N)CC3)[nH]c2c1` [Compound 3-5, 1-[5-(3-fluoro-5-methylphenyl)-3-(6-methoxy-1H-indol-2-yl)pyridazin-4-yl]piperidin-4-amine], the pEC50 was over 8.00.

With `Cc1cc(F)cc(-c2cnnc(-c3cc4c(Cl)cccc4[nH]3)c2N2CCC(N)CC2)c1` [Compound 3-6, 1-[3-(4-chloro-1H-indol-2-yl)-5-(3-fluoro-5-methylphenyl)pyridazin-4-yl]piperidin-4-amine], the pEC50 was over 8.00.

For the compound `Cc1cc(F)cc(-c2cnnc(-c3cc4cccc(Cl)c4[nH]3)c2N2CCC(N)CC2)c1` [Compound 3-7, 1-[3-(7-chloro-1H-indol-2-yl)-5-(3-fluoro-5-methylphenyl)pyridazin-4-yl]piperidin-4-amine], the pEC50 is over 8.00.
